How the values were obtained:
[1] = tested on: glial fibrillary acidic protein (GFAP); test: GFAP immunofluorescence in corpus callosum after PTX with or without 4-AP (Example 9); type: in vivo; conditions: E0771 tumor-bearing mice; PTX 35 mg/kg day one
Method: To determine whether 4-AP treatment can prevent PTX-induced increases in a reactive inflammatory response in the brain, as detected by increased expression of glial fibrillary acidic protein (GFAP), 16-week-old female C57BL/6 mice were inoculated with a triple negative murine breast cancer cell line E0771. When tumors were palpable, the mice were injected with either paclitaxel and water, 4-AP, both, or saline as a control. Paclitaxel (35 mg/kg) was injected on day one and 4-AP and water were injected daily. The mice were sacrificed on day nine and their brains were perfused and harvested. Brains were cryosectioned coronally.
The mouse brain sections were stained with anti-GFAP antibodies, followed by a fluorescent secondary, for analysis via immunofluorescence.

[2] = tested on: chemotherapy-induced peripheral neuropathy (CIPN) caused by PTX; conditions: mouse, in vivo
Method: More specifically, initial studies were conducted on the specific case of CIPN as induced by exposure to PTX. […] 16 week old C73L/6 female mice were given a single dose of 35 mg/kg PTX (i.p.). Animals were separated into control (saline, i.p., n=4) or treatment group (2 mg/kg 4-AP daily, i.p., n=4). Pre-treatment Catwalk scores were compared to 21 days post-PTX injection.
To align with clinical treatments, mice were treated with a PTX dose of 35 mg/kg (equivalent to approximately 110 mg/m^2 and within the clinical treatment range) for four cycles, each three weeks apart.
The studies also included a 4-AP treatment arm (n=4) with a daily dose of 2 mg/kg 4-AP administered i.p. (as per most previous studies by MN and colleagues).
To evaluate detailed functional changes in gait, the CatWalk™ (Noldus Information Technology, Wageningen, The Netherlands) method was implemented.
Sciatic nerve samples were harvested and resin-embedded, sectioned and imaged using transmission electron microscopy. Images were analyzed to calculate markers of peripheral neuropathy, namely: axon counts, fiber size, myelination (g ratio), and circumferential irregularity (FIG. 2).

[3] = tested on: kidney; test: Kidney histology (H&E) after PTX with or without 4-AP (Example 8); type: in vivo, mice; conditions: PTX treated, daily saline
Method: To examine effects on the kidney histological studies were conducted on this tissue. Mice received PTX on day 0 of the experiment, and half of those mice also were injected with 4-AP at this time, and every day thereafter, at a dosage of 2 mg/kg. Mice not receiving 4-AP were injected with saline to control for any stress induced by daily injections. Experimental groups also included mice receiving no PTX treatment, and treated only with daily injections of saline. Mice were sacrificed after 1 week. Mice were perfused with 4% paraformaldehyde and kidneys were sectioned and stained with haematoxylin & eosin (H&E).

[4] = tested on: CIPN; conditions: 0-10 point scale; cited from earlier work

Compound: CC(=O)O[C@H]1C(=O)[C@@]2(C)[C@H]([C@H](OC(=O)c3ccccc3)[C@]3(O)C[C@H](OC(=O)[C@H](O)[C@@H](NC(=O)c4ccccc4)c4ccccc4)C(C)=C1C3(C)C)[C@]1(OC(C)=O)CO[C@@H]1C[C@@H]2O [PTX, paclitaxel]
- expression of GFAP after PTX, corpus callosum [1]: increased expression of GFAP
- tolerability of PTX dose [2]: tolerated the dose
- kidney histology after PTX, H&E staining [3]: Loss of brush borders (dark grey arrows), nuclear dropout (grey arrow), and blebbing of tubular epithelial cells

Compound: CNCC[C@H](Oc1cccc2ccccc12)c1cccs1 [duloxetine]
- average reduction in pain [4]: 0.72 point
